≈ marks a conversion by molar mass, not a printed value.
Tests used:
S. aureus MRSA4 = experiment: MIC against S. aureus MRSA4 in vitro (broth dilution); type: cell-based; settings: Staphylococcus aureus; S. aureus MRSA4 in vitro; SAR series (Fig. 2)
Source text: We synthesized 50 compounds (Fig. 2, Supplementary Table 1) using the Steglich esterification scheme[31] in the presence of a […], 1-ethyl-3-(3-dimethylaminopropyl)-carbodiimide hydrochloride (Fig. 1b). Antimicrobial activities of the compounds were examined by determining the MIC against S. aureus MRSA4 in vitro; therapeutic activities were examined using a systemic infection model of silkworms infected with S. aureus MSSA1. […]
Antimicrobial activity was assessed by determining the MIC by broth dilution assay according to our previous reports[21],[35],[36] as per the Clinical and Laboratory Standards Institute[37]. Briefly, serial dilutions of compound 5, compound 7, and positive controls were prepared in cation-adjusted Mueller-Hinton Broth (MHB, Difco, Franklin Lakes, NJ, USA), 100 µl of which was dispensed into each well of a round-bottomed 96-well plate. The final concentrations in the well ranged from 128 µg/ml to 0.0625 µg/ml. Bacteria were grown at 37 °C overnight on either Luria Bertani (tryptone 10 g/l, yeast extract 5 g/l, NaCl 10 g/l) or Tryptic Soy Broth (TSB, Difco) agar plates or sheep blood agar plates (Eiken Chemical Co. Ltd., Tokyo, Japan). Bacterial inoculum was prepared by direct suspension of the colonies in 0.9% saline, and adjusted to obtain a turbidity equivalent to a 0.5 McFarland standard using a spectrophotometer UV-1280 (Shimadzu Corp., Kyoto, Japan). The suspension was then diluted 1:20 in cation-adjusted MHB (Difco), and 10 µl of it was inoculated into each well of previously prepared 96-well plates containing compounds to obtain approximately 5 × 10^4 colony forming units/well and incubated at 37 °C for 20 h. […] Vancomycin (Wako Pure Chemicals) or norfloxacin (Sigma Aldrich, St Louis, MO, USA) were used as positive controls. Each plate contained a growth control well and a vehicle control well. The MIC was determined as the minimum concentration that inhibited the growth of the bacteria.

S. aureus MSSA1 = experiment: Silkworm systemic infection model, therapeutic activity (ED50); type: in vivo, Staphylococcus aureus; settings: for ED50: Staphylococcus aureus, silkworms infected with S. aureus MSSA1 (Fig. 2), read-out: ED50
Source text: We synthesized 50 compounds (Fig. 2, Supplementary Table 1) using the Steglich esterification scheme[31] in the presence of a […], 1-ethyl-3-(3-dimethylaminopropyl)-carbodiimide hydrochloride (Fig. 1b). Antimicrobial activities of the compounds were examined by determining the MIC against S. aureus MRSA4 in vitro; therapeutic activities were examined using a systemic infection model of silkworms infected with S. aureus MSSA1.
A total of 108,373 compounds from the chemical library of the Drug Discovery Initiative at the University of Tokyo were screened for antibacterial activity against S. aureus strain MRSA4 as previously reported. Those compounds that inhibited the growth of MRSA4 at 100 µM were further evaluated for their therapeutic effects in silkworms infected with S. aureus strain MSSA1 according to previously reported studies[17],[21].

Row | Structure (SMILES) | MIC (S. aureus MRSA4) | ED50 (S. aureus MSSA1) | survival of the S. aureus-infected silkworms (S. aureus MSSA1; S. aureus-infected silkworms)
1 | O=C(COc1cc(Cl)cc(Cl)c1)c1ccc([N+](=O)[O-])o1 [compound 15] | 50 µg/mL (≈ 158 µM) | > 105 mg/kg | –
2 | CC(OC(=O)c1ccc([N+](=O)[O-])s1)c1ccc(Cl)cc1Cl (centres unmarked) [compound 40] | 1.6 µg/mL (≈ 4.62 µM) | > 160 mg/kg | –
3 | O=C(COc1cc(Cl)cc(Cl)c1)c1ccc([N+](=O)[O-])s1 [compound 16] | 50 µg/mL (≈ 151 µM) | > 220 mg/kg | –
4 | O=C(OCc1c(Cl)cccc1Cl)c1ccc([N+](=O)[O-])s1 [compound 42] | 3.1 µg/mL (≈ 9.33 µM) | > 180 mg/kg | –
5 | CSc1ccc(COC(=O)c2ccc([N+](=O)[O-])s2)cc1 [compound 54] | 6.3 µg/mL (≈ 20.4 µM) | 43 mg/kg | –
6 | O=C(OCc1cc(F)cc(F)c1)c1ccc([N+](=O)[O-])s1 [compound 46] | 3.1 µg/mL (≈ 10.4 µM) | 81 mg/kg | –
7 | O=C(OCc1ccc(OC(F)(F)F)cc1)c1ccc([N+](=O)[O-])s1 [compound 57] | 6.3 µg/mL (≈ 18.1 µM) | – | –
8 | O=C(OCc1ccc(Cl)cc1Cl)c1ccc([N+](=O)[O-])s1 [compound 39] | 3.1 µg/mL (≈ 9.33 µM) | 28 mg/kg | –
9 | O=C(NCc1cccc(Cl)c1)c1ccc([N+](=O)[O-])s1 [compound 11] | 6.3 µg/mL (≈ 21.2 µM) | > 170 mg/kg | –
10 | O=C(OCc1ccc2ccccc2c1)c1ccc([N+](=O)[O-])s1 [compound 9] | 1.6 µg/mL (≈ 5.11 µM) | > 105 mg/kg | –
11 | O=C(OCc1cccc(F)c1)c1ccc([N+](=O)[O-])s1 [compound 19] | 0.4 µg/mL (≈ 1.42 µM) | > 87 mg/kg | –
12 | Cc1ccc(COC(=O)c2ccc([N+](=O)[O-])s2)cc1 [compound 47] | 3.1 µg/mL (≈ 11.2 µM) | 33 mg/kg | –
13 | O=C(OCc1ccc2ccccc2c1)c1ccc([N+](=O)[O-])o1 [compound 8] | > 200 µg/mL | > 100 mg/kg | –
14 | O=C(OCc1cccc(Cl)c1)c1ccc([N+](=O)[O-])o1 [compound 3] | 12.5 µg/mL (≈ 44.4 µM) | > 87 mg/kg | –
15 | O=C(OCc1cc(Cl)cc(Cl)c1)c1csc([N+](=O)[O-])c1 [compound 36] | > 400 µg/mL | – | –
16 | Cc1ccc(C(=O)OCc2cc(Cl)cc(Cl)c2)s1 [compound 31] | > 200 µg/mL | – | –
17 | O=C(OCc1cc(F)cc(Cl)c1)c1ccc([N+](=O)[O-])s1 [compound 20] | 0.4 µg/mL (≈ 1.27 µM) | 17 mg/kg | –
18 | O=C(OCc1cc(Cl)cc(Cl)c1)c1cccc([N+](=O)[O-])n1 [compound 33] | > 400 µg/mL | – | –
19 | Cc1ccc(Cl)c(COC(=O)c2ccc([N+](=O)[O-])s2)c1F [compound 45] | 1.6 µg/mL (≈ 4.85 µM) | 82 mg/kg | –
20 | CS(=O)(=O)c1ccc(COC(=O)c2ccc([N+](=O)[O-])s2)cc1 [compound 51] | > 400 µg/mL | – | –
21 | O=C(OCc1cc(Cl)cc(Cl)c1)c1cc(Br)c(Br)s1 [compound 28] | > 200 µg/mL | > 100 mg/kg | –
22 | O=C(OCc1cc(Cl)cc(Cl)c1)c1ccco1 [compound 2] | > 200 µg/mL | – | –
23 | O=C(NCc1cc(Cl)cc(Cl)c1)c1ccc([N+](=O)[O-])s1 [compound 52] | 25 µg/mL (≈ 75.5 µM) | > 190 mg/kg | –
24 | O=C(OCc1cccc(Br)c1)c1ccc([N+](=O)[O-])s1 [compound 18] | 1.6 µg/mL (≈ 4.68 µM) | 53 mg/kg | –

Row | Structure (SMILES) | MIC (S. aureus MRSA4) | ED50 (S. aureus MSSA1) | survival of the S. aureus-infected silkworms (S. aureus MSSA1; S. aureus-infected silkworms)
25 | CC(=O)c1ccc(C(=O)OCc2cc(Cl)cc(Cl)c2)s1 [compound 34] | > 400 µg/mL | – | –
26 | O=C(OCc1ccc(Cl)cc1)c1ccc([N+](=O)[O-])s1 [compound 48] | 3.1 µg/mL (≈ 10.4 µM) | 58 mg/kg | –
27 | O=Cc1ccc(C(=O)OCc2cc(F)cc(Cl)c2)s1 [compound 25] | 50 µg/mL (≈ 167 µM) | > 100 mg/kg | –
28 | O=C(OCc1cc(Cl)ccc1Cl)c1ccc([N+](=O)[O-])s1 [compound 43] | 3.1 µg/mL (≈ 9.33 µM) | > 180 mg/kg | –
29 | CN(C)c1cccc(COC(=O)c2ccc([N+](=O)[O-])s2)c1 [compound 55] | 25 µg/mL (≈ 81.6 µM) | – | –
30 | O=C(OCc1cc2c(cc1Cl)OCO2)c1ccc([N+](=O)[O-])s1 [compound 50] | 3.1 µg/mL (≈ 9.07 µM) | > 240 mg/kg | –
31 | COc1cc(COC(=O)c2ccc([N+](=O)[O-])s2)cc(OC)c1 [compound 49] | > 400 µg/mL | – | –
32 | O=C(NCc1cccc(Cl)c1)c1ccc([N+](=O)[O-])o1 [compound 10] | 3.1 µg/mL (≈ 11 µM) | > 105 mg/kg | –
33 | O=C(OCc1cccc(Br)c1)c1ccc([N+](=O)[O-])o1 [compound 17] | 12.5 µg/mL (≈ 38.3 µM) | > 220 mg/kg | –
34 | O=C(OCc1c(F)cccc1Cl)c1ccc([N+](=O)[O-])s1 [compound 44] | 6.3 µg/mL (≈ 20 µM) | > 180 mg/kg | –
35 | O=Cc1ccc(C(=O)OCc2cc(Cl)cc(Cl)c2)s1 [compound 23] | 25 µg/mL (≈ 79.3 µM) | > 100 mg/kg | –
36 | O=C(OCc1cc(Cl)cc(Cl)c1)c1ccc([N+](=O)[O-])o1 [compound 1] | 12.5 µg/mL (≈ 39.5 µM) | > 95 mg/kg | slightly prolonged the survival
37 | CN(Cc1ccccc1)C(=O)c1ccc([N+](=O)[O-])s1 [compound 14] | 50 µg/mL (≈ 181 µM) | > 210 mg/kg | –
38 | O=C(OCc1c(Br)c(Br)c(Br)c(Br)c1Br)c1ccc([N+](=O)[O-])s1 [compound 22] | > 200 µg/mL | – | –
39 | O=C(OCc1ccccc1)c1ccc([N+](=O)[O-])o1 [compound 4] | 12.5 µg/mL (≈ 50.6 µM) | > 95 mg/kg | –
40 | O=C(OCc1cc(Cl)cc(Cl)c1)c1ccc(Br)s1 [compound 27] | > 200 µg/mL | – | –
41 | O=C(OCc1cccc(Cl)c1)c1ccc([N+](=O)[O-])s1 [compound 6] | 0.5 µg/mL (≈ 1.68 µM) | 65 mg/kg | –
42 | O=C(OCc1cc(Cl)cc(Cl)c1)c1ccc(Cl)s1 [compound 26] | > 200 µg/mL | – | –
43 | O=Cc1ccc(C(=O)OCc2cc(Br)cc(Br)c2)s1 [compound 24] | 25 µg/mL (≈ 61.9 µM) | > 100 mg/kg | –
44 | O=C(OCc1cc(Cl)cc(Cl)c1)c1cc([N+](=O)[O-])n[nH]1 [compound 30] | 1.6 µg/mL (≈ 5.06 µM) | > 210 mg/kg | –
45 | O=C(OCc1c(Cl)cc(Cl)cc1Cl)c1ccc([N+](=O)[O-])s1 [compound 41] | 1.6 µg/mL (≈ 4.36 µM) | 32 mg/kg | –
46 | Cc1cc(C)cc(COC(=O)c2ccc([N+](=O)[O-])s2)c1 [compound 53] | 6.3 µg/mL (≈ 21.6 µM) | > 210 mg/kg | –
47 | O=C(OCc1cc(Br)cc(Br)c1)c1ccc([N+](=O)[O-])s1 [compound 21] | 6.3 µg/mL (≈ 15 µM) | > 100 mg/kg | –

Source: article PMC5785531, “Pharmacokinetic parameters explain the therapeutic activity of antimicrobial agents in a silkworm infection model” (Scientific Reports, 2018)
